From US8741897B2, “Glucocorticoid mimetics, methods of making them, pharmaceutical compositions and uses thereof” (Boehringer Ingelheim Pharmaceuticals Inc., priority 2003, dated 2014) come the findings set out here.

The structures appear in SMILES notation.

In test [1] the target is T1, human glucocorticoid receptor (GR) complex (Homo sapiens, UniProt P04150).
T1 construct: made in house; host or cells: insect expression system (baculovirus lysate)
T1 sequence (P04150 1-777): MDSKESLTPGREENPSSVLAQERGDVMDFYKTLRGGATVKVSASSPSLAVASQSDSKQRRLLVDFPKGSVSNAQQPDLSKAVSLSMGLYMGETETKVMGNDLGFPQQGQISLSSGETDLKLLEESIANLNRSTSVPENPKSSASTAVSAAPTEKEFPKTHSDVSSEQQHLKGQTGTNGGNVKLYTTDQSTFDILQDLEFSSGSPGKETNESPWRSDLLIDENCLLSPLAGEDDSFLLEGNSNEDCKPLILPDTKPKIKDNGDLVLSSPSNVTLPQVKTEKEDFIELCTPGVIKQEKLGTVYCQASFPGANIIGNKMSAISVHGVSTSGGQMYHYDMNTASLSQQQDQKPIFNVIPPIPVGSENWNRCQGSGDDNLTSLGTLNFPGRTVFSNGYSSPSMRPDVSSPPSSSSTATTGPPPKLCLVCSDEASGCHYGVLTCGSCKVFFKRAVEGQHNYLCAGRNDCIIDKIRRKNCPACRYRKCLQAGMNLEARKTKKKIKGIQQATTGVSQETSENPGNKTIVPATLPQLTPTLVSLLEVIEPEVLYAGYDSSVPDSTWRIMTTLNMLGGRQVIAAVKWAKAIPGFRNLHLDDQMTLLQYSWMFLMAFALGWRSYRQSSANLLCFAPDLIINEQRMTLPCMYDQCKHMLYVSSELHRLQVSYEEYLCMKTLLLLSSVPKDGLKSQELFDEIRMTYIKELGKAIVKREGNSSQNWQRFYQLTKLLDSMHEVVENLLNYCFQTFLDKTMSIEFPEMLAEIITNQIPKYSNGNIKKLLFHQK
Put plainly: Glucocorticoid receptor competitive binding assay (fluorescence polarization, TAMRA-labeled dexamethasone probe). The note with it: compounds of Formula (IA). As to the method: Compounds of the invention were evaluated for binding to the steroid receptor by a fluorescence polarization competitive binding assay. Detailed descriptions for preparation of recombinant glucocorticoid receptor (GR) complex used in the assay is described in U.S. patent application Pub.
A. Glucocorticoid Receptor Competitive Binding Assay
Step 1. Characterization of the Fluorescent Probe
The wavelengths for maximum excitation and emission of the fluorescent probe should first be measured. An example of such a probe is rhodamine (TAMRA)-labeled dexamethasone.
The affinity of the probe for the steroid receptor was then determined in a titration experiment. The fluorescence polarization value of the probe in assay buffer was measured on an SLM-8100 fluorometer using the excitation and emission maximum values described above. Aliquots of expression vector lysate were added and fluorescence polarization was measured after each addition until no further change in polarization value was observed. Non-linear least squares regression analysis was used to calculate the dissociation constant of the probe from the polarization values obtained for lysate binding to the probe.
Step 2. Screening for Inhibitors of Probe Binding
This assay uses fluorescence polarization (FP) to quantitate the ability of test compounds to compete with tetramethyl rhodamine (TAMRA)-labeled dexamethasone for binding to a human glucocorticoid receptor (GR) complex prepared from an insect expression system. The assay buffer was: 10 mM TES, 50 mM KCl, 20 mM Na2MoO4.2H2O, 1.5 mM EDTA, 0.04% w/v CHAPS, 10% v/v glycerol, 1 mM dithiothreitol, pH 7.4. Test compounds were dissolved to 1 mM in neat DMSO and then further diluted to 10× assay concentration in assay buffer supplemented with 10% v/v DMSO. Test compounds were serially diluted at 10× assay concentrations in 10% DMSO-containing buffer in 96-well polypropylene plates. Binding reaction mixtures were prepared in 96-well black Dynex microtiter plates by sequential addition of the following assay components to each well: 15 μL of 10× test compound solution, 85 μL of GR-containing baculovirus lysate diluted 1:170 in assay buffer, and 50 μL of 15 nM TAMRA-labeled dexamethasone. Positive controls were reaction mixtures containing no test compound; negative controls (blanks) were reaction mixtures containing 0.7 μM to 2 μM dexamethasone. […] IC50 values were determined by iterative non-linear curve fitting of the FP signal data to a 4-parameter logistic equation.

Test [2] deals with glucocorticoid receptor function. Briefly: one or more of the above assays (GR binding and glucocorticoid receptor cell assays: aromatase, IL-6, TAT, MMTV-Luc, IL-8, ICAM-Luc). In kind it is cell-based. The note with it: assay not specified per compound.

On to `CC(C)(CC(O)(Cc1cc2ccccc2[nH]1)C(F)(F)F)c1cccc(F)c1` (centres unmarked) [1,1,1-Trifluoro-4-(3-fluorophenyl)-2-(1H-indol-2-ylmethyl)-4-methylpentan-2-ol], for which the “activity in the GR binding assay” value in test [1] is reported as “potent activity”. Also, in test [2], the “activity as agonists of the glucocorticoid receptor function in one or more of the above assays” value (“activity as agonists” for short) is listed as “potent agonists”.
On to `Cc1c(CC(O)(CC(C)(C)c2cccc(F)c2)C(F)(F)F)[nH]c2ccccc12` (centres unmarked) [1,1,1-Trifluoro-4-(3-fluorophenyl)-4-methyl-2-(3-methyl-1H-indol-2-ylmethyl)pentan-2-ol], for which the “activity in the GR binding assay” value in test [1] is on record as “potent activity”. Moreover, the “activity as agonists” value in test [2] is “potent agonists”.
On the same counts, the results for `CC(C)(CC(O)(Cc1ccnc2ccccc12)C(F)(F)F)c1cccc(F)c1` (centres unmarked) [1,1,1-Trifluoro-4-(3-fluorophenyl)-4-methyl-2-quinolin-4-ylmethylpentan-2-ol] are “potent activity” and “potent agonists”.
For `COc1cc(F)ccc1C(C)(C)CC(O)(Cc1cc2c(C)ccc(F)c2[nH]1)C(F)(F)F` (centres unmarked) [1,1,1-Trifluoro-4-(4-fluoro-2-methoxyphenyl)-2-(7-fluoro-4-methyl-1H-indol-2-ylmethyl)-4-methylpentan-2-ol], the “activity in the GR binding assay” value in test [1] is “potent activity”. In addition, the “activity as agonists” value in test [2] is listed as “potent agonists”.
On the same counts, the results for `Cc1cc(F)ccc1C(C)(C)CC(O)(Cc1ccnc2ccccc12)C(F)(F)F` (centres unmarked) [1,1,1-Trifluoro-4-(4-fluoro-2-methylphenyl)-4-methyl-2-quinolin-4-ylmethylpentan-2-ol] are “potent activity” and “potent agonists”.
On the same counts, the results for `Cc1cc(C(C)(C)CC(O)(Cc2cc3ccccc3[nH]2)C(F)(F)F)ccc1F` (centres unmarked) [1,1,1-Trifluoro-4-(4-fluoro-3-methylphenyl)-2-(1H-indol-2-ylmethyl)-4-methylpentan-2-ol] are “potent activity” and “potent agonists”.
In the same order, the values of `CC(C)(CC(O)(Cc1cc2ccccc2[nH]1)C(F)(F)F)c1ccc(F)cc1` (centres unmarked) [1,1,1-Trifluoro-4-(4-fluorophenyl)-2-(1H-indol-2-ylmethyl)-4-methylpentan-2-ol] are “potent activity” and “potent agonists”.
On to `Cc1cc(CC(O)(CC(C)(C)c2ccc(F)cc2)C(F)(F)F)c2ccccc2n1` (centres unmarked) [1,1,1-Trifluoro-4-(4-fluorophenyl)-4-methyl-2-(2-methylquinolin-4-ylmethyl)pentan-2-ol], for which the “activity in the GR binding assay” value in test [1] was “potent activity”. Besides, the “activity as agonists” value in test [2] was “potent agonists”.
In the same order, the values of `CC(C)(CC(O)(Cc1ccnc2ccccc12)C(F)(F)F)c1ccc(F)cc1` (centres unmarked) [1,1,1-Trifluoro-4-(4-fluorophenyl)-4-methyl-2-quinolin-4-ylmethylpentan-2-ol] are “potent activity” and “potent agonists”.
In the same order, the values of `CC(C)(CC(O)(Cc1cc2cnccc2[nH]1)C(F)(F)F)c1cc(F)cc2c1OCC2` (centres unmarked) [1,1,1-Trifluoro-4-(5-fluoro-2,3-dihydrobenzofuran-7-yl)-4-methyl-2-(1H pyrrolo[3,2-c]pyridin-2-ylmethyl)pentan-2-ol] are “potent activity” and “potent agonists”.
On to `CSc1ccc2[nH]c(CC(O)(CC(C)(C)c3cc(F)cc4c3OCC4)C(F)(F)F)cc2c1` (centres unmarked) [1,1,1-Trifluoro-4-(5-fluoro-2,3-dihydrobenzofuran-7-yl)-4-methyl-2-(5-methylsulfanyl-1H-indol-2-ylmethyl)pentan-2-ol], for which the “activity in the GR binding assay” value in test [1] is “potent activity”. Besides, the “activity as agonists” value in test [2] is on record as “potent agonists”.
On the same counts, the results for `COc1ccc(F)cc1C(C)(C)CC(O)(Cc1cc2c(OC)ncnc2[nH]1)C(F)(F)F` (centres unmarked) [1,1,1-Trifluoro-4-(5-fluoro-2-methoxyphenyl)-2-(4-methoxy-7H-pyrrolo[2,3-d]pyrimidin-6-ylmethyl)-4-methylpentan-2-ol] are “potent activity” and “potent agonists”.
`COc1ccc(F)cc1C(C)(C)CC(O)(Cc1cc2cc(Cl)ncc2[nH]1)C(F)(F)F` (centres unmarked) [1,1,1-Trifluoro-4-(5-fluoro-2-methoxyphenyl)-2-(5-chloro-1H-pyrrolo[2,3-c]pyridin-2-ylmethyl)-4-methylpentan-2-ol]: the “activity in the GR binding assay” value in test [1] is “potent activity”. In addition, the “activity as agonists” value in test [2] is on record as “potent agonists”.
Turning to `COc1cc2cc(CC(O)(CC(C)(C)c3cc(F)ccc3OC)C(F)(F)F)[nH]c2cn1` (centres unmarked) [1,1,1-Trifluoro-4-(5-fluoro-2-methoxyphenyl)-2-(5-methoxy-1H-pyrrolo[2,3-c]pyridin-2-ylmethyl)-4-methylpentan-2-ol], in test [1], the “activity in the GR binding assay” value is “potent activity”. Moreover, in test [2], the “activity as agonists” value is “potent agonists”.
`COc1ccc(F)cc1C(C)(C)CC(O)(Cc1cc2ccnc(F)c2[nH]1)C(F)(F)F` (centres unmarked) [1,1,1-Trifluoro-4-(5-fluoro-2-methoxyphenyl)-2-(7-fluoro-1H-pyrrolo[2,3-c]pyridin-2-ylmethyl)-4-methylpentan-2-ol]: the “activity in the GR binding assay” value in test [1] is “potent activity”. Moreover, the “activity as agonists” value in test [2] was “potent agonists”.
For the compound `COc1ccc(F)cc1C(C)(C)CC(O)(c1c(F)ccc2c(C)ccnc12)C(F)(F)F` (centres unmarked) [1,1,1-Trifluoro-4-(5-fluoro-2-methoxyphenyl)-2-(7-fluoro-4-methylquinolin-8-yl)-4-methylpentan-2-ol], the “activity in the GR binding assay” value in test [1] was “potent activity”. For the same compound, the “activity as agonists” value in test [2] is recorded as “potent agonists”.
For the compound `COc1ccc(F)cc1C(C)(C)CC(O)(Cc1cc(C)nc2ccccc12)C(F)(F)F` (centres unmarked) [1,1,1-Trifluoro-4-(5-fluoro-2-methoxyphenyl)-4-methyl-2-(2-methylquinolin-4-ylmethyl)pentan-2-ol], the “activity in the GR binding assay” value in test [1] is given as “potent activity”. The “activity as agonists” value in test [2] is listed as “potent agonists”.
In the same order, the values of `COc1ccc(F)cc1C(C)(C)CC(O)(Cc1[nH]c2ccncc2c1C)C(F)(F)F` (centres unmarked) [1,1,1-Trifluoro-4-(5-fluoro-2-methoxyphenyl)-4-methyl-2-(3-methyl-1H pyrrolo[3,2-c]pyridin-2-ylmethyl)pentan-2-ol] are “potent activity” and “potent agonists”.
Turning to `COc1ccc(F)cc1C(C)(C)CC(O)(Cc1cc2c(C)nccc2[nH]1)C(F)(F)F` (centres unmarked) [1,1,1-Trifluoro-4-(5-fluoro-2-methoxyphenyl)-4-methyl-2-(4-methyl-1H pyrrolo[3,2-c]pyridin-2-ylmethyl)pentan-2-ol], the “activity in the GR binding assay” value in test [1] was “potent activity”. Besides, the “activity as agonists” value in test [2] is on record as “potent agonists”.
